Patent publication US9408871B2, “Methods for inhibiting complement activation and uses thereof” (THE UNIVERSITY OF BRITISH COLUMBIA, priority 2013, dated 2016)

Key:
[1] = tested on: TP complement components (C5b,6, C7, C8, C9); test: terminal pathway hemolytic assay using purified complement components; format: cell-based, human; details: cRBC, purified C5b,6, C7, C8, C9
Protocol: For serum-based terminal pathway (TP) hemolytic assays, components were diluted in GVB containing 10 mM EDTA (GVB-E), the latter added to prevent upstream complement activation and generation of endogenous C5b,6. 2% NHS was used as the source of C7, C8, and C9, and hemolysis of chicken erythrocytes (cRBC) (3.3×10^8 cells/mL) was initiated by addition of exogenous purified C5b,6, the concentration of which was determined from pilot studies to yield ˜70-80% lysis at 30 min. No C5b,6 activity was detected in the NHS prior to initiating the reaction. For some experiments, instead of NHS, purified terminal pathway complement components were used in the TP assays. In these assays, in a final volume of 300 uL GVB, lysis was achieved by the sequential addition of the following components: cRBC (3.3×10^8 cells/mL), C5b,6 (20 μM), C7 (15 nM), C8 (10 nM), and C9 (25 nM). The unlysed cell pellet was removed by centrifugation and lysis was measured immediately after the 30-minute reaction. […]
A standard curve for the terminal pathway assay using purified complement components (FIG. 3) was generated using C7 (15 nM), C8 (10 nM), and C9 (25 nM) in excess, and hemolysis of chicken erythrocytes after 30 min at 37° C. was determined as dependent on the concentration of purified C5b,6. […]

C5b,6 = target: T1, C5b,6 (Homo sapiens, UniProt P01031+P13671); test: analytic gel filtration; format: binding; details: 10 mM
T1 construct: C5 convertase that cleaves C5 into C5a and C5b; human plasma-derived C5b,6, C7, C8, and C9; purchased Complement Technology, Inc. (Tyler, Tex., USA); host or cells: human plasma
Protocol: Proteins were stored in their stock solution buffers. The C5b,6 buffer consisted of 10 mM HEPES, 120 mM NaCl, pH 7.2. The C7 buffer consisted of 10 mM Na3PO4, 145 mM NaCl, at pH 7.3 (PBS). The buffers were filtered through a 0.22 μm pore diameter Stericup and Steritop Express™ PLUS filter from Millipore (Billerica, Mass., USA).
Proteins were thawed at 37° C. for 10 min. An excess amount of protein was removed from the stock vial and transferred to a clean 600 μL microtube. C7 was diluted to […]. The proteins were centrifuged at 20,817 g for 15 min and under a Class 2A Biosafety Cabinet, 100 μL fractions were transferred to clean microtubes. The following samples were analyzed by gel filtration:
For all samples, 20 μg of the protein in 100 μL of their respective buffers was prepared. For samples containing polyphosphate, 8 μL of 400 mM polyP>1000 was mixed with 2 μL of 5× concentrated HBS (for C5b,6) or PBS (for C7), yielding a solution of 320 mM polyP>1000 in HBS or PBS. 3.13 μL of the polyphosphate solution was added to 100 μL of either C5b,6 or C7, for a final polyP>1000 concentration of 9.71 mM. […]
The gel filtration apparatus, ÄKTAmicro System from G.E. Healthcare (Buckinghamshire, UK), was equilibrated with either HBS (0.22 μm filtered) for C5b,6 or PBS (0.22 μm filtered) for C7 for at least 1 hour, at 5 μL per minute. […] Protein was monitored with UV absorbance at 280 nm. […]

T1 sequence (P01031 19-673 limits assumed): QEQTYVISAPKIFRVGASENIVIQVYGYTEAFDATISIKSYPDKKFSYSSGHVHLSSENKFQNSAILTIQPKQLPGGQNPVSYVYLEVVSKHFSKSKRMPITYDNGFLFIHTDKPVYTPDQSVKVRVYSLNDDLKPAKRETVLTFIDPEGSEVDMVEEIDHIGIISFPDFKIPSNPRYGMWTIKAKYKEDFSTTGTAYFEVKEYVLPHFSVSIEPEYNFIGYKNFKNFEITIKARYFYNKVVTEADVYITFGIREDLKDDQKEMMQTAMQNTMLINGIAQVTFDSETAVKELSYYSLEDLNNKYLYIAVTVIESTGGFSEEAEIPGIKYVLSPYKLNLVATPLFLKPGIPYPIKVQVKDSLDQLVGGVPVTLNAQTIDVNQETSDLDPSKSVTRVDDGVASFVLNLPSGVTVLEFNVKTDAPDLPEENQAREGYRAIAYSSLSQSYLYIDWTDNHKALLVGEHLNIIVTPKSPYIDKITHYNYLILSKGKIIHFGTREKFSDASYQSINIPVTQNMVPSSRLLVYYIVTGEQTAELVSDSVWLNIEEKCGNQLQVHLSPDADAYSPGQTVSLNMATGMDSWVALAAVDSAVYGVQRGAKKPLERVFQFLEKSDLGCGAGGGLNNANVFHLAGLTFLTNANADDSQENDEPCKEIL
T1 sequence (P01031 752-1676 limits assumed): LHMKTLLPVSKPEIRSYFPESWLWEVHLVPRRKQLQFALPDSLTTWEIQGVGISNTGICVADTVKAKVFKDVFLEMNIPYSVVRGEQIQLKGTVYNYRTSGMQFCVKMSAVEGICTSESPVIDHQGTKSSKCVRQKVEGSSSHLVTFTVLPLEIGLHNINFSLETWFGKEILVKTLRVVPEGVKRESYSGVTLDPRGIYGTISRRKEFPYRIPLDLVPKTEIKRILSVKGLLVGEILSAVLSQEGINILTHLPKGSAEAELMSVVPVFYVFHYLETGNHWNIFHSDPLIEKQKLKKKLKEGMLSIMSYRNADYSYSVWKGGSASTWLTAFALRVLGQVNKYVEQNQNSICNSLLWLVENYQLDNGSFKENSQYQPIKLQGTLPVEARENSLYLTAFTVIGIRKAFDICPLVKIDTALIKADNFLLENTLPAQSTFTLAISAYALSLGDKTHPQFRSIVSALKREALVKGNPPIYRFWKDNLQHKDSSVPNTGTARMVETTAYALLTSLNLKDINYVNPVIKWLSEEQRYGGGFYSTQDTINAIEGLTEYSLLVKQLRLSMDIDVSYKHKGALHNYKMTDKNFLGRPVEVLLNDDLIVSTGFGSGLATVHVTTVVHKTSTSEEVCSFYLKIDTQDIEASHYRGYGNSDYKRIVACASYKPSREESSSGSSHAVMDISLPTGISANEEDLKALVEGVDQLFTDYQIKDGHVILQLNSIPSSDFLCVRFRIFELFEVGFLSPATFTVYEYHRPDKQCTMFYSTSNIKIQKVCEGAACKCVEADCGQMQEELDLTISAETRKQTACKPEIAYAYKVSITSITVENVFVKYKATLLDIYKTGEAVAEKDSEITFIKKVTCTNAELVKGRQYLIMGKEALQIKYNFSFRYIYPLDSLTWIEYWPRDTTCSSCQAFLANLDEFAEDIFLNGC
T1 sequence (P13671 22-934): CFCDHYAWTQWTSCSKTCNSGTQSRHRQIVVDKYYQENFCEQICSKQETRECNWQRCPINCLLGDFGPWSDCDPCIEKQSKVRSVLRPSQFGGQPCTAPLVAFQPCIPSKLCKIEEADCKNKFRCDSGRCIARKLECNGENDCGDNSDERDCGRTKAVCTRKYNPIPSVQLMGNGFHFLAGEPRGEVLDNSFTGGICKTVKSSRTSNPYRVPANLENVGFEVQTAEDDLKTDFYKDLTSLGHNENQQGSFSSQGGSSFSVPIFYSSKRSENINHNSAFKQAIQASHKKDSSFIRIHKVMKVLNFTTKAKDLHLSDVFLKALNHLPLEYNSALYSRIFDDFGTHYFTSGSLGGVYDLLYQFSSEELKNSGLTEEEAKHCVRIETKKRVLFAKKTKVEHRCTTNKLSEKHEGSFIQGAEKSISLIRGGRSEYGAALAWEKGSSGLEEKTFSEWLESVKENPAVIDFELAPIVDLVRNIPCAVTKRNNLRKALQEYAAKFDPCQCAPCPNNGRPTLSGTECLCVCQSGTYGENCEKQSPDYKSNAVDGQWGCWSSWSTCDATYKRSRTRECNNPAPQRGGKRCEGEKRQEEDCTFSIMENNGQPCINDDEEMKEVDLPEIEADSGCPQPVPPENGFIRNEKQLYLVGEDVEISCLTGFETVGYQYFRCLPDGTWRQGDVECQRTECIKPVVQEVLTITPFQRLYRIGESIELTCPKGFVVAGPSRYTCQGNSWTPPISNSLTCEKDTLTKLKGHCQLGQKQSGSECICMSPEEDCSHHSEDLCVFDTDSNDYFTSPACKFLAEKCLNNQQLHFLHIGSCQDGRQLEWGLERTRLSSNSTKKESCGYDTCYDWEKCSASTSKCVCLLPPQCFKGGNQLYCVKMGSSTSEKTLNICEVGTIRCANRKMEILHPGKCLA

`O=P(O)(O)O` [P1, Orthophosphate] was tested, and the “effect on erythrocyte lysis, purified TP components” value [1] was “had no effect” and the “effect on C5b,6 elution profile in gel filtration” value (C5b,6) was “did not affect the retention time or elution profile”.
